Legend:
[1] = target: T1, G12V-mutant human KRAS (amino acid residues 1-188) (Homo sapiens, UniProt P01116, G12V); assay: KRAS Binding Competition Assay (AlphaScreen; biotinylated KRpep-2d analogue), G12V; conditions: geometric mean, read-out: KRAS GMean IC50 (uM) MUTATION: G12V
T1 construct: G12V-mutant human KRAS (amino acid residues 1-188) with FLAG tag was purified from E. coli; made in house; host or cells: E. coli

[2] = target: T2, G12D-mutant human KRAS (amino acid residues 1-188) (Homo sapiens, UniProt P01116, G12D); assay: KRAS Binding Disruption Assay (AlphaScreen; biotinylated KRpep-2d analogue or RAF1-RBD), G12D; conditions: KRAS G12D; geometric mean; read-out: KRAS GMean IC50 (uM) MUTATION: G12D
T2 construct: G12D or G12C-mutant human KRAS (amino acid residues 1-188) with FLAG tag; made in house; host or cells: E. coli
Outline: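 Displacement format with mutant KRAS, biotinylated KRpep-2d analogue or RAF1-RBD (5-20 nM each) at pH 7.5 with 5 mM MgCl2.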

Row | SMILES | IC50 [1] [µM] | IC50 [2] [µM]
1 | Cc1cccc2cccc(-c3ccc4c(N5CC6CCC(C5)N6C(=O)CC#N)nc(OC[C@@H]5CCCN5C)nc4c3F)c12 (racemic) [P-0019, 3-((1R,5S)-3-(8-fluoro-7-(8-methylnaphthalen-1-yl)-2-(((RS)-1-methylpyrrolidin-2-yl)methoxy)quinazolin-4-yl)-3,8-diazabicyclo[3.2.1]octan-8-yl)-3-oxopropanenitrile] | 10 to 100 | 10 to 100
2 | Oc1cc(-c2ccc3c(C4=C[C@@H]5CC[C@H](C4)N5)nc(OCC45CCCN4CCC5)nc3c2)c2ccccc2c1 [P-0054, 4-(4-((1S,5R)-8-azabicyclo[3.2.1]oct-2-en-3-yl)-2-((tetrahydro-1H-pyrrolizin-7a(5H)-yl)methoxy)quinazolin-7-yl)naphthalen-2-ol] | 10 to 100 | 0.0001 to 10
3 | CN1CCc2c(cccc2Oc2nc(N3C[C@H]4CC[C@@H](C3)N4)c3ccc(-c4cc(O)cc5ccccc45)c(F)c3n2)C1 [P-0623, 4-(4-((1R,5S)-3,8-diazabicyclo[3.2.1]octan-3-yl)-8-fluoro-2-((2-methyl-1,2,3,4-tetrahydroisoquinolin-5-yl)oxy)quinazolin-7-yl)naphthalen-2-ol] | 10 to 100 | 0.0001 to 10
4 | CN1CCC[C@H]1COc1nc(N2[C@@H]3CC[C@H]2CN(C(=O)CC(C)(C)O)C3)c2ccc(-c3cc(O)cc4ccccc34)cc2n1 [P-0311, 3-hydroxy-1-((1R,5S)-8-(7-(3-hydroxynaphthalen-1-yl)-2-(((S)-1-methylpyrrolidin-2-yl)methoxy)quinazolin-4-yl)-3,8-diazabicyclo[3.2.1]octan-3-yl)-3-methylbutan-1-one] | 10 to 100 | 10 to 100
5 | CN(C)c1cccc(Oc2nc(N3C[C@H]4CC[C@@H](C3)N4)c3cc(Cl)c(-c4c(O)cccc4F)c(F)c3n2)c1 [P-0390, 2-(4-((1R,5S)-3,8-diazabicyclo[3.2.1]octan-3-yl)-6-chloro-2-(3-(dimethylamino)phenoxy)-8-fluoroquinazolin-7-yl)-3-fluorophenol] | 0.0001 to 10 | 0.0001 to 10
6 | CN1CCc2cccc(Oc3nc(N4C[C@H]5CC[C@@H](C4)N5)c4cc(Cl)c(-c5c(O)cccc5F)c(F)c4n3)c2C1 [P-0331, 2-(4-((1R,5S)-3,8-diazabicyclo[3.2.1]octan-3-yl)-6-chloro-8-fluoro-2-((2-methyl-1,2,3,4-tetrahydroisoquinolin-8-yl)oxy)quinazolin-7-yl)-3-fluorophenol] | 10 to 100 | 0.0001 to 10
7 | CN1CCC[C@H]1COc1nc(N2C[C@H]3CC[C@@H](C2)N3)c2ccc(-c3ccc4c(c3)NCCO4)cc2n1 [P-0173, 6-(4-((1R,5S)-3,8-diazabicyclo[3.2.1]octan-3-yl)-2-(((S)-1-methylpyrrolidin-2-yl)methoxy)quinazolin-7-yl)-3,4-dihydro-2H-benzo[b][1,4]oxazine] | 10 to 100 | 10 to 100
8 | CN1CCC(CC(=O)N2[C@@H]3CC[C@H]2CN(c2nc(OCC45CCCN4CCC5)nc4c(F)c(-c5cc(O)cc6ccccc56)ccc24)C3)CC1 [P-0149, 1-((1R,5S)-3-(8-fluoro-7-(3-hydroxynaphthalen-1-yl)-2-((tetrahydro-1H-pyrrolizin-7a(5H)-yl)methoxy)quinazolin-4-yl)-3,8-diazabicyclo[3.2.1]octan-8-yl)-2-(1-methylpiperidin-4-yl)ethan-1-one] | 0.0001 to 10 | 0.0001 to 10
9 | N#CCC(=O)N1[C@@H]2CC[C@H]1CN(c1nc(OCC34CCCN3CCC4)nc3c(F)c(-c4cc(O)cc5ccccc45)c(Cl)cc13)C2 [P-0461, 3-((1R,5S)-3-(6-chloro-8-fluoro-7-(3-hydroxynaphthalen-1-yl)-2-((tetrahydro-1H-pyrrolizin-7a(5H)-yl)methoxy)quinazolin-4-yl)-3,8-diazabicyclo[3.2.1]octan-8-yl)-3-oxopropanenitrile] | 0.0001 to 10 | 0.0001 to 10
10 | CN1CCC[C@H]1COc1nc(N2[C@@H]3CC[C@H]2CN(C(=O)CC2CCCC2O)C3)c2ccc(-c3cc(O)cc4ccccc34)cc2n1 (stereo partly drawn) [P-0196, 2-(2-hydroxycyclopentyl)-1-((1R,5S)-8-(7-(3-hydroxynaphthalen-1-yl)-2-(((S)-1-methylpyrrolidin-2-yl)methoxy)quinazolin-4-yl)-3,8-diazabicyclo[3.2.1]octan-3-yl)ethan-1-one] | 10 to 100 | 10 to 100
11 | CN1CCC[C@H]1COc1nc(N2C[C@H]3CC[C@@H](C2)N3C(=O)c2n[nH]c(=O)[nH]2)c2ccc(-c3cc(O)cc4ccccc34)c(F)c2n1 [P-0107, 5-((1R,5S)-3-(8-fluoro-7-(3-hydroxynaphthalen-1-yl)-2-(((S)-1-methylpyrrolidin-2-yl)methoxy)quinazolin-4-yl)-3,8-diazabicyclo[3.2.1]octane-8-carbonyl)-2,4-dihydro-3H-1,2,4-triazol-3-one] | 0.0001 to 10 | 0.0001 to 10
12 | CN1CCC[C@H]1COc1nc(N2[C@@H]3CC[C@H]2CN(C(=O)CCC2CNCCN2)C3)c2ccc(-c3cc(O)cc4ccccc34)cc2n1 (stereo partly drawn) [P-0194, 1-((1R,5S)-8-(7-(3-hydroxynaphthalen-1-yl)-2-(((S)-1-methylpyrrolidin-2-yl)methoxy)quinazolin-4-yl)-3,8-diazabicyclo[3.2.1]octan-3-yl)-3-(piperazin-2-yl)propan-1-one] | 10 to 100 | 10 to 100
13 | CN1CCC[C@H]1COc1nc(N2[C@@H]3CC[C@H]2CN(C(=O)CC#N)C3)c2ccc(-c3cc(O)cc4ccccc34)cc2n1 [P-0325, 3-((1R,5S)-8-(7-(3-hydroxynaphthalen-1-yl)-2-(((S)-1-methylpyrrolidin-2-yl)methoxy)quinazolin-4-yl)-3,8-diazabicyclo[3.2.1]octan-3-yl)-3-oxopropanenitrile] | 0.0001 to 10 | 10 to 100
14 | CN1CCC[C@H]1COc1nc(N2CC3CCCC2CN3C(=O)NC2CCOC2)c2ccc(-c3cc(O)cc4ccccc34)c(F)c2n1 (stereo partly drawn) [P-0298, 8-(8-fluoro-7-(3-hydroxynaphthalen-1-yl)-2-(((S)-1-methylpyrrolidin-2-yl)methoxy)quinazolin-4-yl)-N-(tetrahydrofuran-3-yl)-6,8-diazabicyclo[3.2.2]nonane-6-carboxamide] | 0.0001 to 10 | 0.0001 to 10
15 | CN1CCC[C@H]1COc1nc(N2C[C@H]3CC[C@@H](C2)N3)c2ccc(-c3cccc4[nH]ncc34)cc2n1 [P-0171, 4-((1R,5S)-3,8-diazabicyclo[3.2.1]octan-3-yl)-7-(1H-indazol-4-yl)-2-(((S)-1-methylpyrrolidin-2-yl)methoxy)quinazoline] | 100 to 1000 | 100 to 1000
16 | CN1CCC[C@H]1COc1nc(N2C[C@H]3CC[C@@H](C2)N3)c2cnc(N3CC(=O)Nc4cccc(Cl)c43)c(F)c2n1 [P-0444, 4-(4-((1R,5S)-3,8-diazabicyclo[3.2.1]octan-3-yl)-8-fluoro-2-(((S)-1-methylpyrrolidin-2-yl)methoxy)pyrido[4,3-d]pyrimidin-7-yl)-5-chloro-3,4-dihydroquinoxalin-2(1H)-one] | 100 to 1000 | 10 to 100
17 | CN1CCC[C@H]1COc1nc(N2C[C@H]3CC[C@@H](C2)N3)c2ccc(-c3ccc(CO)s3)cc2n1 [P-0182, (5-(4-((1R,5S)-3,8-diazabicyclo[3.2.1]octan-3-yl)-2-(((S)-1-methylpyrrolidin-2-yl)methoxy)quinazolin-7-yl)thiophen-2-yl)methanol] | 100 to 1000 | 100 to 1000
18 | O=C([C@@H]1CCNC1)N1[C@@H]2CC[C@H]1CN(c1nc(OCC34CCCN3CCC4)nc3cc(-c4cc(O)cc5ccccc45)ccc13)C2 [P-0111, ((1R,5S)-3-(7-(3-hydroxynaphthalen-1-yl)-2-((tetrahydro-1H-pyrrolizin-7a(5H)-yl)methoxy)quinazolin-4-yl)-3,8-diazabicyclo[3.2.1]octan-8-yl)((R)-pyrrolidin-3-yl)methanone] | 0.0001 to 10 | 0.0001 to 10
19 | CN1CCC[C@H]1COc1nc(N2C[C@H]3CC[C@@H](C2)N3C(=O)CCS(N)(=O)=O)c2ccc(-c3cc(O)cc4ccccc34)c(F)c2n1 [P-0105, 3-((1R,5S)-3-(8-fluoro-7-(3-hydroxynaphthalen-1-yl)-2-(((S)-1-methylpyrrolidin-2-yl)methoxy)quinazolin-4-yl)-3,8-diazabicyclo[3.2.1]octan-8-yl)-3-oxopropane-1-sulfonamide] | 0.0001 to 10 | 0.0001 to 10
20 | Cc1nc2cc(-c3ccc4c(N5C[C@H]6CC[C@@H](C5)N6)nc(OC[C@@H]5CCCN5C)nc4c3)ccc2[nH]1 [P-0163, 4-((1R,5S)-3,8-diazabicyclo[3.2.1]octan-3-yl)-7-(2-methyl-1H-benzo[d]imidazol-5-yl)-2-(((S)-1-methylpyrrolidin-2-yl)methoxy)quinazoline] | 100 to 1000 | 100 to 1000
21 | CN1CCC[C@H]1COc1nc(N2C[C@H]3CC[C@@H](C2)N3)c2ccc(-c3cc(N)cc4ccccc34)cc2n1 [P-0340, 4-(4-((1R,5S)-3,8-diazabicyclo[3.2.1]octan-3-yl)-2-(((S)-1-methylpyrrolidin-2-yl)methoxy)quinazolin-7-yl)naphthalen-2-amine] | 10 to 100 | 0.0001 to 10
22 | CN1CCC[C@H]1COc1nc(N2C[C@H]3CC[C@@H](C2)N3C(=O)C(=O)Nc2ccccn2)c2ccc(-c3cc(O)cc4ccccc34)c(F)c2n1 [P-0400, 2-((1R,5S)-3-(8-fluoro-7-(3-hydroxynaphthalen-1-yl)-2-(((S)-1-methylpyrrolidin-2-yl)methoxy)quinazolin-4-yl)-3,8-diazabicyclo[3.2.1]octan-8-yl)-2-oxo-N-(pyridin-2-yl)acetamide] | 0.0001 to 10 | 0.0001 to 10
